Data taken from PubChem BioAssay AID274 (DTP/NCI, 2004).
Where “and” joins values, the source holds several entries; their conditions need not be identical. Identical values can stand only once. Toxic doses and inconclusive results are not listed. Numbered stars: 1 amine (or outer) side, 2 acyl side, 3 side chain; on linkers, the order of the positions; unused ones are H or OH. Square brackets hold non-standard residues; d marks the D form. Peptide text beside a SMILES is read from it. * marks the point of attachment. X2 = CCC(=O)CC1CC(C)CC(C(=O)[*:2])N1[*:1]; X1 = CCCCCCCCC(C)C(=O)*; Aib = CC(C)(N)C(=O)O; X3 = CC(CN(C)CCO)N*

Tested on: BDF1 mice, Lewis lung carcinoma iv, survival T/C
Assay: NCI In Vivo Anticancer Drug Screen. Data for tumor model Lewis Lung Carcinoma (intravenous) in B6D2F1 (BDF1) mice
Conditions: endpoint: median survival time, higher = longer survival
Experimental: The antitumor activity of compounds was measured in mice bearing transplantable tumors. Survival or tumor size were measured and the results are expressed as the measurement made in the treated group (T) divided by the measurement made in the vehicle treated control group (C). The tumor model used in this assay is Lewis Lung Carcinoma (intravenous) in B6D2F1 (BDF1) mice

[1] = dose: 12.5 mg/kg/injection, schedule: Q01DX009 (ip), vehicle: saline with Tween-80
[2] = dose: 25.0 mg/kg/injection, schedule: Q01DX009 (ip), vehicle: saline with Tween-80
[3] = dose: 50.0 mg/kg/injection, schedule: Q01DX009 (ip), vehicle: saline with Tween-80
[4] = dose: 100.0 mg/kg/injection, schedule: Q01DX009 (ip), vehicle: saline with Tween-80
[5] = dose: 200.0 mg/kg/injection, schedule: Q01DX009 (ip), vehicle: saline with Tween-80
[6] = dose: 400.0 mg/kg/injection, schedule: Q01DX009 (ip), vehicle: saline with Tween-80
[7] = dose: 25.0 mg/kg/injection, schedule: Q01DX009 (ip), vehicle: saline
[8] = dose: 50.0 mg/kg/injection, schedule: Q01DX009 (ip), vehicle: saline
[9] = dose: 25.0 mg/kg/injection, schedule: Q01DX009 (ip), vehicle: Klucel (hydroxypropylcellulose) (HPC)
[10] = dose: 50.0 mg/kg/injection, schedule: Q01DX009 (ip), vehicle: Klucel (hydroxypropylcellulose) (HPC)
[11] = dose: 100.0 mg/kg/injection, schedule: Q01DX009 (ip), vehicle: Klucel (hydroxypropylcellulose) (HPC)
[12] = dose: 100.0 mg/kg/injection, schedule: Q01DX009 (ip), vehicle: saline
[13] = dose: 200.0 mg/kg/injection, schedule: Q01DX009 (ip), vehicle: saline
[14] = dose: 25.0 mg/kg/injection, schedule: Q01DX009 (ip), vehicle: water
[15] = dose: 50.0 mg/kg/injection, schedule: Q01DX009 (ip), vehicle: water
[16] = dose: 100.0 mg/kg/injection, schedule: Q01DX009 (ip), vehicle: water

`O=C1N(Cl)C(=O)C(c2ccc(Cl)cc2)(c2ccc(Cl)cc2)N1Cl` was tested, and the T/C [1] was 101 % of control, the T/C [2] was 96 % of control and the T/C [3] was 103 % of control. For the same molecule, the T/C [4] was 101 % of control, the T/C [5] was 103 % of control and the T/C [6] was 113 % of control.
In the case of `CCCNc1ncnc2c1cnn2C`, the T/C (dose: 12.5 mg/kg/injection, schedule: Q01DX009 (ip), vehicle: saline) is reported as 100 % of control, the T/C [7] is reported as 105 % of control and the T/C [8] is reported as 109 % of control.
`O=C(Nc1ccc(Cl)c(Cl)c1)Nc1c(Oc2ccc(Cl)c(Cl)c2)ccc(Cl)c1S(=O)(=O)O` was tested, and the T/C (dose: 3.12 mg/kg/injection, schedule: Q01DX009 (ip), vehicle: Klucel (hydroxypropylcellulose) (HPC)) was 113 % of control, the T/C (dose: 6.25 mg/kg/injection, schedule: Q01DX009 (ip), vehicle: Klucel (hydroxypropylcellulose) (HPC)) was 104 % of control and the T/C [9] was 109 % of control. For the same molecule, the T/C [10] was 105 % of control and the T/C [11] was 100 % of control.
In the case of `CCN(CC)CCOCCO`, the T/C [7] is reported as 110 % of control, the T/C [8] is reported as 99 % of control and the T/C [12] is reported as 101 % of control. The T/C [13] was 99 % of control.
In the case of `CCCCCCCCC(C)C(=O)N1CCCC1C(=O)N1C(CC(=O)CC)CC(C)CC1C(=O)NC(C)C(=O)NC(C)(C)C(=O)NC(C)(C)C(=O)NC(C(=O)NC(C)C(=O)NC(C)(C)C(=O)NC(C)(C)C(=O)NC(C)CN(C)CCO)C(C)CC` (stereo not drawn) (X1-P[X2]A[Aib][Aib]IA[Aib][Aib]-X3; configuration not given here), the T/C (dose: 0.31 mg/kg/injection, schedule: Q01DX009 (ip), vehicle: Klucel (hydroxypropylcellulose) (HPC)) is reported as 105 % of control, the T/C (dose: 0.62 mg/kg/injection, schedule: Q01DX009 (ip), vehicle: Klucel (hydroxypropylcellulose) (HPC)) is reported as 97 % of control and the T/C (dose: 1.25 mg/kg/injection, schedule: Q01DX009 (ip), vehicle: Klucel (hydroxypropylcellulose) (HPC)) is reported as 99 % of control. For the same molecule, the T/C (dose: 2.5 mg/kg/injection, schedule: Q01DX009 (ip), vehicle: Klucel (hydroxypropylcellulose) (HPC)) was 104 % of control and the T/C (dose: 5.0 mg/kg/injection, schedule: Q01DX009 (ip), vehicle: Klucel (hydroxypropylcellulose) (HPC)) was 104 % of control.
`NC(=O)c1csc(C2OC(CO)C(O)C2O)n1` (stereo not drawn) was tested, and the T/C [14] was 326 % of control, the T/C [15] was 326 % of control and the T/C [16] was 326 % of control. The T/C (dose: 200.0 mg/kg/injection, schedule: Q01DX009 (ip), vehicle: water) was 326 % of control, the T/C (dose: 330.0 mg/kg/injection, schedule: Q01DX009 (ip), vehicle: water) was 452 % of control and the T/C (dose: 400.0 mg/kg/injection, schedule: Q01DX009 (ip), vehicle: water) was 326 % of control. For the same molecule, the T/C (dose: 500.0 mg/kg/injection, schedule: Q01DX009 (ip), vehicle: water) was 452 % of control and the T/C (dose: 750.0 mg/kg/injection, schedule: Q01DX009 (ip), vehicle: water) was 452 % of control.
With `CC(C)CC(NC(=O)CF)C(=O)O` (stereo not drawn) the T/C (dose: 0.31 mg/kg/injection, schedule: Q01DX009 (ip), vehicle: saline) was 98 % of control, the T/C (dose: 0.63 mg/kg/injection, schedule: Q01DX009 (ip), vehicle: saline) was 94 % of control and the T/C (dose: 1.25 mg/kg/injection, schedule: Q01DX009 (ip), vehicle: saline) was 90 % of control. For the same molecule, the T/C (dose: 2.5 mg/kg/injection, schedule: Q01DX009 (ip), vehicle: saline) was 102 % of control and the T/C (dose: 5.0 mg/kg/injection, schedule: Q01DX009 (ip), vehicle: saline) was 91 % of control.
In the case of `CNC(=O)c1cccc2c(Nc3ccc(NS(C)(=O)=O)cc3OC)c3cccc(C)c3nc12`, the T/C (dose: 0.39 mg/kg/injection, schedule: Q01DX009 (ip), vehicle: water) is reported as 100 % of control, the T/C (dose: 1.56 mg/kg/injection, schedule: Q01DX009 (ip), vehicle: water) is reported as 112 % of control and the T/C (dose: 3.12 mg/kg/injection, schedule: Q01DX009 (ip), vehicle: water) is reported as 89 % of control.
`CC(=O)NC(C=O)OCC=O` (stereo not drawn) was tested, and the T/C (dose: 6.25 mg/kg/injection, schedule: Q01DX009 (ip), vehicle: water) was 101 % of control, the T/C (dose: 12.5 mg/kg/injection, schedule: Q01DX009 (ip), vehicle: water) was 110 % of control and the T/C [14] was 102 % of control. For the same molecule, the T/C [15] was 111 % of control and the T/C [16] was 106 % of control.
In the case of `O=C1c2c(O)ccc(O)c2C(=O)c2c(NCCNCCO)ccc(NCCNCCO)c21`, the T/C (dose: 1.0 mg/kg/injection, schedule: Q01DX005 (ip), vehicle: saline with Tween-80) is reported as 276 % of control, the T/C (dose: 2.0 mg/kg/injection, schedule: Q01DX005 (ip), vehicle: saline with Tween-80) is reported as 115 % of control and the T/C (dose: 4.0 mg/kg/injection, schedule: Q01DX005 (ip), vehicle: saline with Tween-80) is reported as 116 % of control.
For `CC1CCC(NC(=O)N(CCCl)N=O)CC1` (stereo not drawn), the T/C (dose: 5.0 mg/kg/injection, schedule: Q01DX001 (ip), vehicle: saline) was 100 % of control, the T/C (dose: 10.0 mg/kg/injection, schedule: Q01DX001 (ip), vehicle: saline) was 100 % of control and the T/C (dose: 24.0 mg/kg/injection, schedule: Q01DX001 (ip), vehicle: saline with Tween-80) was 156 % of control. The T/C (dose: 24.0 mg/kg/injection, schedule: Q06DX002 (ip), vehicle: saline with Tween-80) was 176 % of control and 270 % of control, the T/C (dose: 30.0 mg/kg/injection, schedule: Q01DX001 (ip), vehicle: saline) was 94 % of control and 103 % of control and the T/C (dose: 30.0 mg/kg/injection, schedule: Q06DX002 (ip), vehicle: saline with Tween-80) was 220 % of control and 260 % of control. For the same molecule, the T/C (dose: 36.0 mg/kg/injection, schedule: Q01DX001 (ip), vehicle: saline with Tween-80) was 162 % of control and 185 % of control and 205 % of control and the T/C (dose: 40.0 mg/kg/injection, schedule: Q01DX001 (ip), vehicle: saline) was 103 % of control.
In the case of `CC[C@]1(O)C[C@H]2CN(CCc3c([nH]c4ccccc34)[C@@](C(=O)OC)(c3cc4c(cc3OC)N(C)[C@H]3[C@@](O)(C(=O)OC)[C@H](OC(C)=O)[C@]5(CC)C=CCN6CC[C@]43[C@@H]65)C2)C1`, the T/C (dose: 0.6 mg/kg/injection, schedule: Q04DX003 (ip), vehicle: saline) is reported as 106 % of control, the T/C (dose: 125.0 micrograms/kg/injection, schedule: Q04DX003 (ip), vehicle: saline) is reported as 93 % of control (2×) and 102 % of control and the T/C (dose: 250.0 micrograms/kg/injection, schedule: Q04DX003 (ip), vehicle: saline) is reported as 92 % of control (2×) and 95 % of control. For the same molecule, the T/C (dose: 360.0 micrograms/kg/injection, schedule: Q01DX009 (ip), vehicle: saline) was 111 % of control, the T/C (dose: 500.0 micrograms/kg/injection, schedule: Q04DX003 (ip), vehicle: saline) was 92 % of control (2×) and 95 % of control and the T/C (dose: 600.0 micrograms/kg/injection, schedule: Q01DX009 (ip), vehicle: saline) was 92 % of control.
With `CC1OC(O[C@H]2/C=C/C=C/C=C/C=C/C=C/C=C/C=C/[C@H](C)[C@@H](O)[C@@H](C)[C@H](C)OC(=O)C[C@H](O)C[C@H](O)CC[C@@H](O)[C@H](O)C[C@H](O)C[C@]3(O)C[C@H](O)[C@@H](C(=O)O)[C@H](C2)O3)C(O)C(N)C1O` (stereo partly drawn) the T/C (dose: 1.0 mg/kg/injection, schedule: Q01DX009 (ip), vehicle: saline) was 105 % of control, the T/C (dose: 2.0 mg/kg/injection, schedule: Q01DX009 (ip), vehicle: saline) was 109 % of control and the T/C (dose: 8.0 mg/kg/injection, schedule: Q01DX009 (ip), vehicle: saline) was 109 % of control. The T/C (dose: 16.0 mg/kg/injection, schedule: Q01DX009 (ip), vehicle: saline) was 124 % of control.
`O=c1n(CC2CO2)c(=O)n(CC2CO2)c(=O)n1CC1CO1` (stereo not drawn) was tested, and the T/C (dose: 6.25 mg/kg/injection, schedule: Q01DX009 (ip), vehicle: suspension in saline) was 105 % of control and 100 % of control, the T/C (dose: 12.5 mg/kg/injection, schedule: Q01DX009 (ip), vehicle: suspension in saline) was 107 % of control and 101 % of control and the T/C (dose: 25.0 mg/kg/injection, schedule: Q01DX009 (ip), vehicle: suspension in saline) was 121 % of control and 101 % of control.
With `CC[As](=O)(O)CC` the T/C [7] was 105 % of control, the T/C [12] was 101 % of control and the T/C [13] was 86 % of control.
For `CC(Oc1ccccc1-c1ccccc1)C(=O)N(C)C` (stereo not drawn), the T/C [1] was 118 % of control, the T/C [2] was 95 % of control and the T/C [3] was 113 % of control. For the same molecule, the T/C [4] was 93 % of control, the T/C [5] was 113 % of control and the T/C [6] was 114 % of control.
`CCCCCCCCCCCCOP(N)(=O)OCCCCCCCCCCCC` was tested, and the T/C [2] was 97 % of control, the T/C [3] was 93 % of control and the T/C [4] was 91 % of control.
For `c1nc(N2CC2)c2cnn(C3CCCCO3)c2n1` (stereo not drawn), the T/C [9] was 107 % of control, the T/C [10] was 100 % of control and the T/C [11] was 101 % of control.
